Patent publication US20050136491A1, “Method of site specific labeling of proteins and uses therefor” (SmithKline Beecham Corporation, priority 1999, published 2005)
Blank lines part the entries; values can stand above or below the molecule they belong to. Square brackets hold non-standard residues; d marks the D form. Peptide text beside a SMILES is read from it. * marks the point of attachment. Tyr(3-NO2) = N[C@@H](Cc1ccc(O)c([N+](=O)[O-])c1)C(=O)O; Biotin = O=C1N[C@H]2[C@H](CS[C@H]2CCCCC(=O)*)N1

Columns and labels:
Factor XIIIa = biological target: T1, Factor XIIIa (Homo sapiens, UniProt P00488); test: Factor XIII(a)-mediated labeling of ACP-Peptide 1 C-terminal fusion (C-tagged ACP); format: biochemical; conditions: for incorporation into ACP-Peptide 1 fusion: Mono Q ion exchange, 22 hr
T1 construct: purchased Enzyme Research Laboratories
T1 sequence (P00488 39-732 limits assumed): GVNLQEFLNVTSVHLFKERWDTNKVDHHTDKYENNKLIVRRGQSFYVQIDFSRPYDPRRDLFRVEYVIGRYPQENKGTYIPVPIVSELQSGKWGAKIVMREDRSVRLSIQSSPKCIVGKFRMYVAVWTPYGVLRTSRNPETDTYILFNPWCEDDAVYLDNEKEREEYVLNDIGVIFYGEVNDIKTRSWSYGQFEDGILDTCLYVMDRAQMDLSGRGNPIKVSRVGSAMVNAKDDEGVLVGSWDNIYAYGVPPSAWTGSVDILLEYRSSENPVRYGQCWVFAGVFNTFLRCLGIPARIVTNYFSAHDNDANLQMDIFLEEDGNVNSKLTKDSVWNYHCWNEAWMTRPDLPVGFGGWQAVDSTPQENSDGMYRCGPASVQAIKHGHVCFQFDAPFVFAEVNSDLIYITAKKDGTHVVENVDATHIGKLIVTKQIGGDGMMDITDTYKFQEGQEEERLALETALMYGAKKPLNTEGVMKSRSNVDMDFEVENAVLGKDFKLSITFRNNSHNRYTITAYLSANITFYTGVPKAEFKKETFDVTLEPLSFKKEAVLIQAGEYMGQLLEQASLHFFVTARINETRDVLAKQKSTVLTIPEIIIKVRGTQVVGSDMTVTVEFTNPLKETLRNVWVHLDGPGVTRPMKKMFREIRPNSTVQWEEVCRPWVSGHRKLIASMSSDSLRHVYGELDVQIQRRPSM
Protocol: A 270 units/ml reaction of Factor XIII was activated by 42 units/ml immobilized thrombin in Buffer 1:40 mM Tris-HCl, pH 8.3, 0.15 M NaCl. Cadaverine derivatives (rhodamine green and biotin) were used at 0.5 mM for each labeling reaction. The labeling reaction also contained 6 mM of DTT and 5 mM CaCl2. 0.5 mg/ml tagged ACP was used in the labeling reactions, against a 0.5 mg/ml native ACP control sample. Incubations were carried out at room temperature. Aliquots were taken from the mixtures at different time points and 50 mM EDTA was used to stop the labeling reaction (Factor XIII being Ca^2+ dependent). NuPAGE Tris-Glycine gels (4-12%) [Novex] were used to analyze the labeling results. The rhodamine green cadaverine labeling gel was observed under UV translumination, while the biotin cadaverine labeled protein was analyzed by Western blotting/streptavidin-HRP detection. […] No label was incorporated into the native ACP control under the conditions described above.
The ACP-peptide 1 C-terminal fusion was labeled with biotin cadaverine (Molecular Probes) in a reaction mixture of 0.5 mg/ml ACP-Peptide 1 fusion, 1.5 mM biotin-cadaverine and 504 units/ml Factor XIIIa. The efficiency of incorporation was determined by competitive ELISA to be 56%.
Novel biotinylation reagents (i.e. labeling compounds) were tested in an attempt to increase the yield. To this end, two biotinylated dipeptides, Biotin-Trp-Lys-OH and Biotin-NitroTyr-Lys-OH, were evaluated in a reaction mixture of 0.5 mg/ml ACP-Peptide 1 fusion, 1.5 mM biotin-cadaverine and 504 units/ml Factor XIIIa. Incorporation of the Biotin-Trp-Lys-OH dipeptide was shown by Mono Q ion exchange to be >85% (FIG. 2), in comparison to a 55% incorporation of the Biotin-NitroTyr-Lys dipeptide (FIG. 1). […] provides the C-tagged ACP standard. The identity of the modified peak was confirmed by addition of unmodified ACP at the end of the reaction (FIG. 4).

Factor XIII = biological target: T2, Factor XIII (Homo sapiens, UniProt P00488); test: Factor XIII-mediated labeling of N-terminal Peptide 1-ACP fusion (N-tagged ACP); format: biochemical; conditions: analysed by N-terminal sequencing and mass mapping
T2 construct: purchased Enzyme Research Laboratories
T2 sequence (P00488 39-732 limits assumed): T1 sequence (P00488 39-732 limits assumed)

[1] = 0.5 mg/ml fusion, 504 units/ml Factor XIIIa

efficiency of labeling of the ACP-Peptide 1 C-terminal fusion (Factor XIIIa): greater than 90%
extent of labeling of C-tagged ACP (Factor XIIIa; non-optimized reaction, estimated by high-resolution ion exchange): greater than 85%
Molecule: rhodamine green cadaverine

Molecule: NCCCC[C@H](NC(=O)[C@H](Cc1c[nH]c2ccccc12)NC(=O)CCCC[C@@H]1SC[C@@H]2NC(=O)N[C@@H]21)C(=O)O [Biotin-Trp-Lys-OH] (Biotin-Trp-Lys-OH)
incorporation into ACP-Peptide 1 fusion (Factor XIIIa; [1]): > 85%

Molecule: NCCCC[C@H](NC(=O)[C@H](Cc1ccc(O)c([N+](=O)[O-])c1)NC(=O)CCCC[C@@H]1SC[C@@H]2NC(=O)N[C@@H]21)C(=O)O [Biotin-NitroTyr-Lys, Biotin-NitroTyr-Lys-OH] (Biotin-[Tyr(3-NO2)]-Lys-OH)
incorporation into ACP-Peptide 1 fusion (Factor XIIIa; [1]): 55%

labeling efficiency of N-terminal Peptide 1-ACP fusion (Factor XIII): greater than 90%
Molecule: CN(C)c1cccc2c(S(=O)(=O)NCCCCCN)cccc12 [dansyl cadaverine]

Molecule: biotin cadaverine
efficiency of incorporation into ACP-Peptide 1 C-terminal fusion (Factor XIIIa; competitive ELISA, 0.5 mg/ml fusion, 1.5 mM label, 504 units/ml Factor XIIIa): 56%
